Assay results published in US20220275376A1, “TARGETING SLC38A2 IN PANCREATIC CANCER” (New York University, priority 2019, published 2022).

Assays:
PANC1 cells [1] = assay: Intracellular alanine levels in drug-treated PANC1 cells (GC-MS); format: cell-based, human; settings: 24 hours, PXT 10 μM, DPM 10, racemic FLX 10 or 25 μM, vs vehicle (DMSO)
Procedure: (A) Western blot depicting SLC38A2 levels in PANC1 cells engineered to express SLC38A2 under control of doxycycline. Withdrawal of doxycycline results in a significant depletion in SLC38A2 levels after 24 hours.
Fluvoxamine (FVX), fluoxetine (FLX), paroxetine (PXT), sertindole (SND), and blonanserin (BNS) were acquired from Cayman Chemicals. Desipramine (DPM), α-(Methylamino) isobutyric acid (MeAIB), and L-alanine were acquired from Sigma. Stocks were prepared at 10 mM or 7.5 mM (BNS) in DMSO. Cells were treated with vehicle (DMSO) or varying concentrations of drug for indicated time. Conditioned media was collected and centrifuged at 1,000×g to remove cell debris followed by extraction of metabolites. For metabolite extraction, cells were first washed with ice cold 0.9% NaCl to remove media contamination followed by addition of 500 μL methanol (−20° C.) and 200 μL HPLC grade water (4° C.). Cells were scraped and pipeted into glass vials containing 500 μL chloroform (4° C.) and vortexed at 4° C. for 10-15 minutes. Aqueous and inorganic layers were separated by cold centrifugation for 15 minutes. 300 μL of the aqueous layer containing polar metabolites was transferred to sample vials (Agilent 5190-2243) and evaporated using a SpeedVac (Savant Thermo SPD111V). Dried samples were stored at −20° C. and re-evaporated for 5-10 minutes prior to derivatization and GC-MS analysis.

SLC38A2 = molecular target: T1, SLC38A2 (Homo sapiens, UniProt Q96QD8); assay: SLC38A2 activity measured by MeAIB uptake in HY15549 dox-inducible SNAT2 cells; format: cell-based; settings: for inhibition of MeAIB uptake (intracellular MeAIB levels): 20 μm compound, MeAIB 0.3 mM, 1 hour, vs vehicle (PBS), HY15549 cells expressing dox-inducible SLC38A2/SNAT2
T1 construct: expressed in transfected cells; host or cells: HY15549 cells with dox-inducible SNAT2
T1 sequence (Q96QD8 1-506): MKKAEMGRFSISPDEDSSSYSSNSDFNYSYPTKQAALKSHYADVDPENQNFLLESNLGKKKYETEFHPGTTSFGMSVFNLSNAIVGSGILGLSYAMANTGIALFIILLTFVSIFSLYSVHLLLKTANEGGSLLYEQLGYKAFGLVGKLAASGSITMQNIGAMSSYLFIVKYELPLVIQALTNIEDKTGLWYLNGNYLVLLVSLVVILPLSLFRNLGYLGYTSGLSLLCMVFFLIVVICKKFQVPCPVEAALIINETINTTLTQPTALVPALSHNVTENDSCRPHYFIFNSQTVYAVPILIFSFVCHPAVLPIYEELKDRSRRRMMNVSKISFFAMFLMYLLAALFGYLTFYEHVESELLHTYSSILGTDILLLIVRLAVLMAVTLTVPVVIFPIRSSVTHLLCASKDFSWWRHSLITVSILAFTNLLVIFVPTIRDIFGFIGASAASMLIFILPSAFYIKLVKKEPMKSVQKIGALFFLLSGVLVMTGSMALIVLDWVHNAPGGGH
Procedure: (A) Schematic depicting SLC38A2-dependent update of alanine structural analog, methyl α-aminoisobutyrate (MeAIB). […] (B) Total ion chromatogram (TIC) of HY15549 dox-inducible SNAT2 cells treated with 1 mM MeAIB for 24 hours compared to vehicle (PBS). […] HY15549 dox-inducible SNAT2 cells were cultured with a concentration gradient of MeAIB for 15 minutes (gray circles) or 60 minutes (black squares). (D) Western blot depicting SLC38A2 expression relative to doxycycline after 24 hours culture in HY15549 dox-inducible SNAT2 cells. (E) Intracellular MeAIB levels in HY15549 dox-inducible cells cultured with dox (+SNAT2, left bar) and without dox (KO, right bar) for 24 hours with 1 mM MeAIB. (F) Intracellular MeAIB levels in HY15549 dox-inducible cells cultured with vehicle, paroxetine (PXT, 20 μM), or sertraline (SRT, 20 μm) for 24 hours with 300 μM MeAIB.

PANC1 cells [2] = assay: Orthotopic xenograft, PANC1 cells; format: in vivo, NCr nude mice; settings: for tumor burden (tumor weight after resection): PANC1 (5×10^5) pooled SLC38A2-deficient cells vs sgTom, 63 days; for tumor initiation: SLC38A2 knockdown PANC1 cells (5×10^5), orthotopic, vs shGFP, 3-D ultrasound, tumor if volume ≥1 mm^3
Procedure: (§1) (A) SLC38A2 staining in pancreatic tumors derived from the KPC (LSL-Kras^G12D; Trp53^lox/+; p48Cre+) mouse model and normal murine pancreas. Representative fields from KPC (4×, left) and normal pancreas (10×, right) are depicted with scale bars. Arrows indicate instances of punctate SLC38A2 in normal pancreas (right). (B) Representative live cell images of HY19636 (left) and mPSC #1 (right) cells transiently transfected with 3 μg of SLC38A2-GFP (green) overnight and stained with MitoTracker (red) to visualize individual cells; scale bars are indicated in figures. […] Subcutaneous tumors were monitored bi-weekly by caliper measurement and considered formed if length and width were measured to be ≥1 mm each. […] Orthotopic xenografts were monitored by 3-D ultrasound bi-weekly and considered tumors if volume ≥1 mm^3. […] HY19636 (2.5×10^4) or PANC1 (5×10^5) control (sgTom) or pooled SLC38A2-deficient (sgSLC38A2 #1, #3) cells were injected orthotopically, and tumors were weighed following resection after 27 days (HY19636) or 63 days (PANC1). Error bars depict s.e.m. of tumors resected from 9-10 mice.
For orthotopic xenograft experiments, PANC1 cells were infected with lentiviral shRNAs or sgRNAs targeting SLC38A2 or GFP/Tomato as a control and selected with puromycin (2 μg/mL) for three days. For syngeneic orthotopic allograft studies, HY19636 cells were infected with lentiviral sgRNAs targeting SLC38A2 or Tomato and selected with puromycin (2 μg/mL) for three days. 500,000 PANC1 cells or […] HY19636 cells were resuspended in 10 μl HBSS and 10 μl growth factor-reduced matrigel (Corning 356231) per injection and kept on ice. Female 7-8 week old NCr nude or C57BL/6J mice were used for xenograft and allograft experiments, respectively. An incision was made near the spleen which was gently removed from the peritoneal space to expose the pancreas. The 20 μL cell:matrigel suspension was slowly injected into the tail of the exposed pancreas using either a Hamilton or insulin syringe (BD 324702). After injection, the needle was held in place by tweezers briefly to allow the matrigel to polymerize before gently removing the needle and re-introducing the spleen and pancreas into the animal. The peritoneum was sutured and the wound was closed with surgical staples. Buprenorphine was administered by intraperitoneal injection and immediately after surgery and every 12 hours for 48 hours.
After injection, all mice were allowed to recover from surgery for five days before screening for tumor initiation by non-invasive 3-D ultrasound imaging (VisualSonics Vevo 770) twice a week under anesthesia using 1-3% isoflurane via nose cone. Tumor initiation was considered if volume ≥1 mm^3 and sustained or increased in volume over the course of the experiment. […]

HY19636 cells = assay: Orthotopic syngeneic allograft, HY19636 cells; format: in vivo, C57BL/6J mice; settings: HY19636 (2.5×10^4) pooled SLC38A2-deficient cells vs sgTom, 27 days
Procedure: as §1
For orthotopic xenograft experiments, PANC1 cells were infected with lentiviral shRNAs or sgRNAs targeting SLC38A2 or GFP/Tomato as a control and selected with puromycin (2 μg/mL) for three days. […]

PANC1 cells [3] = assay: Subcutaneous xenograft tumor initiation, PANC1 cells co-injected with hPSC #1 cells; format: in vivo, NCr nude mice; settings: SLC38A2 knockdown PANC1 cells (2×10^5) co-injected with hPSC #1 cells (1×10^6), vs shGFP; tumor if length and width ≥1 mm
Procedure: (A) SLC38A2 staining in pancreatic tumors derived from the KPC (LSL-Kras^G12D; Trp53^lox/+; p48Cre+) mouse model and normal murine pancreas. Representative fields from KPC (4×, left) and normal pancreas (10×, right) are depicted with scale bars. Arrows indicate instances of punctate SLC38A2 in normal pancreas (right). (B) Representative live cell images of HY19636 (left) and mPSC #1 (right) cells transiently transfected with 3 μg of SLC38A2-GFP (green) overnight and stained with MitoTracker (red) to visualize individual cells; scale bars are indicated in figures. […] Subcutaneous tumors were monitored bi-weekly by caliper measurement and considered formed if length and width were measured to be ≥1 mm each. […] Orthotopic xenografts were monitored by 3-D ultrasound bi-weekly and considered tumors if volume ≥1 mm^3. […]
For subcutaneous co-injection tumor initiation studies, PANC1 cells were infected with lentiviral shRNAs targeting SLC38A2 or GFP as a control shRNA and selected with puromycin (2 μg/mL) for three days. […] Tumor initiation was monitored two to three times per week by caliper measurement. Tumor initiation was considered if length and width were measured to be ≥1 mm each.

## CNCCC(Oc1ccc(C(F)(F)F)cc1)c1ccccc1 (racemic) [fluoxetine]
PANC1 cells [1]
  reduction of intracellular alanine levels: ~50%

## CNC(C)(C)C(=O)O [MeAIB, α-(Methylamino) isobutyric acid]
SLC38A2; HY15549 dox-inducible SNAT2 cells, MeAIB concentration gradient, 15 or 60 minutes, read-out: Km of MeAIB uptake (Michaelis-Menten kinetics)
  Km: ~3.5 mM

## CNCCCN1c2ccccc2CCc2ccccc21 [desipramine]
PANC1 cells [1]
  reduction of intracellular alanine levels: ~50%

## Fc1ccc([C@@H]2CCNC[C@H]2COc2ccc3c(c2)OCO3)cc1 [paroxetine]
PANC1 cells [1]
  reduction of intracellular alanine levels: ~50%
SLC38A2
  inhibition of MeAIB uptake (intracellular MeAIB levels): inhibited

## CN[C@H]1CC[C@@H](c2ccc(Cl)c(Cl)c2)c2ccccc21 [sertraline]
SLC38A2
  inhibition of MeAIB uptake (intracellular MeAIB levels): inhibited

## sgSLC38A2 #1: CRISPR sgRNA targeting SLC38A2, TAATCTGAGCAATGCGATTG (SEQ ID NO:7) (expressed or natural sequence)
PANC1 cells [2]
  tumor burden (tumor weight after resection): significantly reduced tumor burden
HY19636 cells
  tumor burden (tumor weight after resection): significantly reduced tumor burden

## sgSLC38A2 #3: CRISPR sgRNA targeting SLC38A2, TCTTATGCCATGGCTAATAC (SEQ ID NO:8) (expressed or natural sequence)
PANC1 cells [2]
  tumor burden (tumor weight after resection): significantly reduced tumor burden
HY19636 cells
  tumor burden (tumor weight after resection): significantly reduced tumor burden

## shSLC38A2 #1: lentiviral shRNA targeting SLC38A2, GGAGAAGATACTGTGGCAA (SEQ ID NO:2), TRCN0000020243
PANC1 cells [3]
  tumor initiation: significantly suppressed
PANC1 cells [2]
  tumor initiation: significantly suppressed

## shSLC38A2 #4: lentiviral shRNA targeting SLC38A2, GAATACCAAGAGTTGTTTCTA (SEQ ID NO:3), TRCN0000020241
PANC1 cells [3]
  tumor initiation: significantly suppressed
PANC1 cells [2]
  tumor initiation: significantly suppressed
